Measured values taken from patent US20120213764A1, “NOVEL METHOD FOR THE PRODUCTION OF A ANTIMICROBIAL PEPTIDE” (B.R.A.I.N. BIOTECHNOLOGY RESEARCH AND INFORMATION NETWORK AG, priority 2009, published 2012).

Assays:
[1] = test system: Escherichia coli, Staphylococcus aureus, and Micrococcus luteus; experiment: Antimicrobial activity assay-2, zone of inhibition on LB agar; type: cell-based; conditions: peptide in 40% ACN/0.06% FA spotted in 10 μl on LB agar, 37° C. over night; FIG. 4 against S. aureus
Procedure: DCD1 was dissolved in 0.06% FA (2-5) or 40% ACN/0.06% FA (7-10). 1. 0.06% FA; 2. 5 μg DCD1; 3. 10 μg DCD1; 4. 30 μg DCD1; 5. 60 μg DCD1; 6.40% ACN/0.06% FA; 7. 5 μg DCD1; 8. 10 μg DCD1; 9. 30 μg DCD1; 10. 60 μg DCD1.
(§1) The antimicrobial activity of DCD1 and DCD1L peptides were tested against the following bacterial strains: Escherichia coli, Staphylococcus aureus, and Micrococcus luteus, isolated from skin. Bacterial cultures were grown to mid-exponential growth phase and bacterial concentration was estimated photometrically at 578 nm. Absorbance of 1.0 corresponded to 8.56×10^8/ml for E. coli, 1.97×10^8/ml for S. aureus. After dilution to a concentration of OD578nm 0.01 (˜10^6 CFU/ml), 100 μl of the cells were plated on LB agar. Afterwards different concentrations of the peptide dissolved in 40% ACN/0.06% FA were spotted on the plates in a total volume of 10 μl. As control 10 μl of 40% ACN/0.06% FA was used. The plates were incubated at 37° C. over night. After incubation the zone of inhibition was determined and the antimicrobial activity was calculated in dependence on the peptide concentration.

[2] = test system: Escherichia coli and Staphylococcus aureus; experiment: Antimicrobial activity assay-1, colony-forming units (CFU) assay; type: cell-based; conditions: for reduction of bacteria (colony-forming units): 50-100 μg/ml peptide, 37° C. for 2-4 hours, 10 mM sodium phosphate buffer/10 mM NaCl pH 7.0
Procedure: Antimicrobial assays were performed using the colony-forming units (CFU) assay as previously described. The antibacterial activity of DCD-derived peptides was tested against the following bacterial strains: Escherichia coli and Staphylococcus aureus. Bacterial cultures were grown to mid-exponential growth phase and washed three times with 10 mM sodium phosphate buffer/10 mM NaCl (pH 7.0). Bacterial concentration was estimated photometrically at 600 nm. Absorbance of 1.0 corresponded to 8.56×10^8/ml for E. coli, 1.97×10^8/ml for S. aureus.
After dilution to a concentration of 10^6 CFU/ml, 10 μl of the dilutions were incubated at 37° C. for 2-4 hours with the respective peptide diluted in water in a total volume of 30 μl in 10 mM sodium phosphate buffer containing 10 mM NaCl (pH 7.0). After incubation, cells were diluted 1:100 in 10 mM sodium phosphate buffer containing 10 mM NaCl (pH 7.0) and 90 μl of the diluted bacterial suspension were plated in triplicates on blood agar. Bacterial colonies were counted after incubation for 18-24 hours at 37° C. The antimicrobial activity was calculated using [(cell survival after peptide incubation)/(cell survival in buffer without peptide)×100]. The LC90 describes the lethal concentration of the current peptide in μg/ml or M which leads to 90% reduction of colony-forming units compared to the buffer control. The assay was carried out with 50-100 μg/ml DCD1L and DCD1.

[3] = test system: E. coli, methicillin-resistant Staphylococcus aureus, Staphylococcus epidermidis and Candida albicans; conditions: cited from earlier work
[4] = set-up: species or system human; conditions: in vivo
Procedure: Line 1-3: DCD1L dissolved in 300 mM NaCl, 10 mM NaH2PO4, pH 4.0 and incubated on skin for 0, 2 and 4 hours; Line 4-6: DCD1L dissolved in 300 mM NaCl, 10 mM NaH2PO4, pH 6.5 and incubated on skin for 0, 2 and 4 hours; […] and incubated on skin for 0, 2 and 4 hours. As controls are the recombinantly produced DCD1 and DCD1L peptides.
(A) 2 h, (B) 4 h, (C) 19 h. A total ion count chromatogram […] is shown in black and two single ion chromatograms for m/z 785 and m/z 805 corresponding to DCD1 and DCD1L respectively are shown.
For testing in vivo processing, the DCD1L peptide was dissolved in buffers (300 mM NaCl, 10 mM NaH2PO4) varying in pH (4, 6.5, and 9) and incubated on forearm. Therefore a construction composed of cardboard containing five ceramic rings was created. This construction was fixed on forearm with tape and ceramic rings were filled with 100 μl (˜140 μg) DCD1L. Finally an elastic foil was used to surround the whole construction. The incubation on skin varied from one to four hours before removing the samples from skin. Afterwards the peptide samples were analyzed by SDS PAGE (FIG. 5) and HPLC-MS (FIGS. 6 A and B) and also further incubated at room temperature in vitro (FIG. 6 C). […] This kind of processing was also analyzed by SDS PAGE and HPLC-MS.

S. aureus = experiment: Antimicrobial activity assay-2 with in vivo produced DCD1; type: cell-based; conditions: ~28 μg spotted, in 40% ACN/0.06% FA, S. aureus OD578nm 0.01 on LB agar
Procedure: DCD1 was dissolved in 40% ACN/0.06% FA. 1. 24 μg recombinantly produced DCD1 2. 24 μg in vivo produced DCD1; 3. 10 μl 40% ACN/0.06% FA;
as §1
To determine the antimicrobial activity, the in vivo produced DCD1 was lyophilized and dissolved in 40% ACN/0.06% FA. For testing its activity ˜28 μg DCD1 was spotted in LB agar plates containing 100 μl S. aureus (OD578nm 0.01) (see chapter Antimicrobial activity assay—2). As control 40% ACN/0.06% FA was spotted.

Substance	antimicrobial activity (zone of inhibition) [1]	reduction of bacteria (colony-forming units) [2]	antimicrobial activity (inventors' finding, summary statement) ([2]; no conditions given at the place)	antimicrobial activity against several microorganisms [3]	conversion of DCD1L into DCD1 ([4]; pH 4)	incubation time after which processing of DCD1L to DCD1 was complete ([4]; pH 9) [h]	antimicrobial activity (inhibition zone) of DCD1 produced from DCD1L on skin (S. aureus)
DCD1L: 48 aa peptide, amino acids 63 to 110 of dermcidin, recombinantly produced (SSLLEKGLDGAKKAVGGLGKLGKDAVEDLESVGKGAVHDVKDVLDSVL; homo sapiens)	only activity emanating from DCD1 was detectable	only the addition of DCD1 led to a reduction of diverse bacteria	does not have antimicrobial activity	have antimicrobial activity	always converted into DCD1 in a pH- and time-dependent manner	16	
SEQ ID NO: 5: peptide of amino acids 63 to 85 of dermcidin (SSLLEKGLDGAKKAVGGLGKLGK; homo sapiens)				have antimicrobial activity			
SEQ ID NO: 4: peptide of amino acids 63 to 87 of dermcidin (SSLLEKGLDGAKKAVGGLGKLGKDA; homo sapiens)				have antimicrobial activity			
DCD1: 47 aa peptide, amino acids 63 to 109 of dermcidin, recombinantly produced or formed from DCD1L on skin (SSLLEKGLDGAKKAVGGLGKLGKDAVEDLESVGKGAVHDVKDVLDSV; homo sapiens)	activity emanating from DCD1 was detectable	led to a reduction of diverse bacteria		have antimicrobial activity			is antimicrobial active
